This is an account of results in patent publication US9889155B2, “Enhancer of anti-tumor effect of anti-cancer agent” (priority 2014, dated 2018).

The structures appear in SMILES notation. Converted amounts (≈) assume the structure as drawn. Where a name gives a salt, the structure may show the parent alone.

The test system of series [1] is Human colorectal cancer cells (HCT116). As to the kind of experiment: IC50 of anticancer agents against HCT116 cells with or without sCA particles, cell count at 48 hours (Example 2). In kind it is cell-based. The protocol:
At 48 hours after the addition of each of the anticancer agents, the number of cells was counted, and the IC50 (concentration of 5-fluorouracil that kills 50% of the cancer cells) value was determined.

In series [2] the test system is human colorectal cancer cell line HT29 subcutaneous tumor. Put plainly: Doxorubicin accumulation in HT29 subcutaneous tumors, IVIS Spectrum fluorescent imaging (Example 7). In kind it is in vivo, BALB/cA nude mice. As to conditions: HT29 tumor mice; doxorubicin hydrochloride 1.5 mg/mouse via tail vein; tumors removed after 2 hours; sCA(2) particles 3 hours before, where used; FIG. 9. On the procedure:
At the time when the tumors reached about 10 mm in diameter, the mice were randomly divided into the two groups shown in Table 5, and each group was administered the drug. After 2 hours from the drug administration, tumors were removed from the mice, and doxorubicin hydrochloride accumulated in the tumors was detected by fluorescent imaging using the IVIS Spectrum. For doxorubicin (DOX), detection of fluorescence wavelength has been confirmed by the IVIS Spectrum (FIG. 8).

In series [3] the test system is Human colorectal cancer cells (HCT116). As to the kind of experiment: IC50 of 5-fluorouracil against HCT116 cells with or without sCA particles, cell count (Example 1). The class given is cell-based. Particulars: sCA(1) particles added 24 hours before, where used. On the procedure:
At 24, 48, and 72 hours after the addition of 5-fluorouracil, the number of cells was counted, and IC50 (concentration of 5-fluorouracil that kills 50% of the cancer cells) values were determined.

[4] abbreviates: Homo sapiens, HCT-116, 48 hours after addition of anticancer agent, With sCA particles, read-out: IC50 (mean ± SD), With sCA particles.
Setting [5] is: Homo sapiens, HCT-116, 48 hours after addition of anticancer agent, Without sCA particles, read-out: IC50 (mean ± SD), Without sCA particles.
[6] abbreviates: 48 hours after addition of anticancer agent, With sCA particles, read-out: IC50 (mean ± SD), With sCA particles.
Where [7] appears, read: 48 hours after addition of anticancer agent, Without sCA particles, read-out: IC50 (mean ± SD), Without sCA particles.

A word on the IC50: it is the concentration that inhibits the measured activity by half. Turning to `CC(=O)O[C@@]12CO[C@@H]1C[C@H](O)[C@@]1(C)C(=O)[C@H](O)C3=C(C)[C@@H](OC(=O)[C@H](O)[C@@H](NC(=O)OC(C)(C)C)c4ccccc4)C[C@@](O)([C@@H](OC(=O)c4ccccc4)[C@H]21)C3(C)C` [Docetaxel, docetaxel], the figures for the IC50 in series [1] (setting [4]) and in series [1] (setting [5]) were 0.00917 ± 0.00042 µM and 0.000353 ± 7e-05 µM, respectively.
As to `O=C1[O][Pt]2([NH][C@@H]3CCCC[C@H]3[NH]2)[O]C1=O` [Oxaliplatin, oxaliplatin], the IC50 in series [1] (setting [6]) turned out to be 31.3 ± 2.2 µM; in series [1] (setting [7]) it was 3.7 ± 1.1 µM.
For `COc1cccc2c1C(=O)c1c(O)c3c(c(O)c1C2=O)C[C@@](O)(C(=O)CO)C[C@@H]3O[C@H]1C[C@H](N)[C@H](O)[C@H](C)O1` [doxorubicin hydrochloride], the “doxorubicin accumulated in the tumor (fluorescent imaging)” value in series [2] was “only a small amount of doxorubicin was detected in the tumor”.
For the compound `O=c1[nH]cc(F)c(=O)[nH]1` [5-fluorouracil], the IC50 in series [3] (HCT-116, 24 hours after addition of 5-fluorouracil, read-out: IC50 (mean ± SD), After 24 hr) stood at 215 ± 141 µg/mL (≈ 1650 µM); in series [3] (HCT-116, 48 hours after addition of 5-fluorouracil, read-out: IC50 (mean ± SD), After 48 hr) it was 4.07 ± 0.473 µg/mL (≈ 31.3 µM); in series [3] (HCT-116, 72 hours after addition of 5-fluorouracil, read-out: IC50 (mean ± SD), After 72 hr) it was 2.64 ± 0.696 µg/mL (≈ 20.3 µM); in series [1] (setting [4]) it was 74.6 ± 10 µM; in series [1] (setting [5]), 11.7 ± 2 µM.
Regarding `N.N.[Cl][Pt][Cl]` [Cisplatin, cisplatin], the IC50 in series [1] (setting [6]) was 39.2 ± 2.7 µM; in series [1] (setting [7]), 31.3 ± 0.9 µM.
